According to PubChem BioAssay AID220 (DTP/NCI, 2004):
Where “and” joins values, the source holds several entries; their conditions need not be identical. Identical values can stand only once. Records with an inconclusive call do not appear.

Tested on: CD8F1 mice, subcutaneous mammary adenocarcinoma, T/C%
Experiment: NCI In Vivo Anticancer Drug Screen. Data for tumor model Mammary Adenocarcinoma CD8F1 (subcutaneous) in CD8F1
Conditions: higher = larger tumour
Summary of the method: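 Tumor-bearing mice, transplantable model; readout survival or tumor size; value = treated (T) / vehicle control (C).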

## CN(C)c1nc(N(C)C)nc(N(C)C)n1
endpoint: mean tumor weight, dose: 75.0 mg/kg/injection, schedule: Q01DX009 (ip), vehicle: saline
  T/C: 64 % of control
endpoint: mean tumor weight, dose: 150.0 mg/kg/injection, schedule: Q01DX009 (ip), vehicle: saline
  T/C: 94 % of control
endpoint: mean tumor weight, dose: 250.0 mg/kg/injection, schedule: Q07DX006 (ip), vehicle: saline
  T/C: 108 % of control
endpoint: mean tumor weight, dose: 300.0 mg/kg/injection, schedule: Q01DX009 (ip), vehicle: saline
  T/C: 8 % of control
endpoint: mean tumor weight, dose: 300.0 mg/kg/injection, schedule: Q07DX006 (ip), vehicle: saline
  T/C: 113 % of control
endpoint: median tumor weight (est.), dose: 12.5 mg/kg/injection, schedule: Q07DX006 (ip), vehicle: saline with Tween-80
  T/C: 100 % of control
endpoint: median tumor weight (est.), dose: 16.0 mg/kg/injection, schedule: Q07DX005 (ip), vehicle: saline with Tween-80
  T/C: 171 % of control
endpoint: median tumor weight (est.), dose: 25.0 mg/kg/injection, schedule: Q07DX005 (ip), vehicle: saline with Tween-80
  T/C: 80 % of control
endpoint: median tumor weight (est.), dose: 25.0 mg/kg/injection, schedule: Q07DX006 (ip), vehicle: saline with Tween-80
  T/C: 54 % of control
endpoint: median tumor weight (est.), dose: 32.0 mg/kg/injection, schedule: Q07DX005 (ip), vehicle: acid diluted with saline
  T/C: 31 % of control
endpoint: median tumor weight (est.), dose: 32.0 mg/kg/injection, schedule: Q07DX005 (ip), vehicle: saline with Tween-80
  T/C: 179 % of control
endpoint: median tumor weight (est.), dose: 50.0 mg/kg/injection, schedule: Q07DX005 (ip), vehicle: saline with Tween-80
  T/C: 73 % of control
endpoint: median tumor weight (est.), dose: 50.0 mg/kg/injection, schedule: Q07DX006 (ip), vehicle: saline with Tween-80
  T/C: 50 % of control
endpoint: median tumor weight (est.), dose: 64.0 mg/kg/injection, schedule: Q07DX005 (ip), vehicle: acid diluted with saline
  T/C: 39 % of control
endpoint: median tumor weight (est.), dose: 64.0 mg/kg/injection, schedule: Q07DX005 (ip), vehicle: saline with Tween-80
  T/C: 212 % of control and 76 % of control
endpoint: median tumor weight (est.), dose: 100.0 mg/kg/injection, schedule: Q07DX005 (ip), vehicle: saline with Tween-80
  T/C: 62 % of control
endpoint: median tumor weight (est.), dose: 100.0 mg/kg/injection, schedule: Q07DX006 (ip), vehicle: saline with Tween-80
  T/C: 78 % of control
endpoint: median tumor weight (est.), dose: 128.0 mg/kg/injection, schedule: Q07DX005 (ip), vehicle: acid diluted with saline
  T/C: 53 % of control
endpoint: median tumor weight (est.), dose: 200.0 mg/kg/injection, schedule: Q07DX005 (ip), vehicle: saline with Tween-80
  T/C: 44 % of control
endpoint: median tumor weight (est.), dose: 200.0 mg/kg/injection, schedule: Q07DX006 (ip), vehicle: saline with Tween-80
  T/C: 5 % of control
endpoint: median tumor weight (est.), dose: 256.0 mg/kg/injection, schedule: Q07DX005 (ip), vehicle: acid diluted with saline
  T/C: 29 % of control
endpoint: median tumor weight change, dose: 100.0 mg/kg/injection, schedule: Q01DX001 (ip), vehicle: acid diluted with saline
  T/C: 103 % of control and 104 % of control
endpoint: median tumor weight change, dose: 200.0 mg/kg/injection, schedule: Q01DX001 (ip), vehicle: acid diluted with saline
  T/C: 61 % of control
endpoint: median tumor weight change, dose: 800.0 mg/kg/injection, schedule: Q01DX001 (ip), vehicle: acid diluted with saline
  T/C: 37 % of control and 51 % of control

## NC(C/[N+]([O-])=N/O)C(=O)O (stereo not given)
endpoint: mean tumor weight, dose: 32.0 mg/kg/injection, schedule: Q07DX006 (ip), vehicle: saline
  T/C: 47 % of control
endpoint: mean tumor weight, dose: 64.0 mg/kg/injection, schedule: Q07DX006 (ip), vehicle: saline
  T/C: 4 % of control
endpoint: mean tumor weight, dose: 128.0 mg/kg/injection, schedule: Q07DX006 (ip), vehicle: saline
  T/C: 32 % of control
endpoint: mean tumor weight, dose: 256.0 mg/kg/injection, schedule: Q07DX006 (ip), vehicle: saline
  T/C: 117 % of control
endpoint: mean tumor weight, dose: 512.0 mg/kg/injection, schedule: Q07DX006 (ip), vehicle: saline
  T/C: 7 % of control
endpoint: mean tumor weight, dose: 1024.0 mg/kg/injection, schedule: Q07DX006 (ip), vehicle: saline
  T/C: 8 % of control
endpoint: median tumor weight (est.), dose: 25.0 mg/kg/injection, schedule: Q07DX005 (ip), vehicle: saline
  T/C: 63 % of control
endpoint: median tumor weight (est.), dose: 50.0 mg/kg/injection, schedule: Q07DX005 (ip), vehicle: saline
  T/C: 68 % of control
endpoint: median tumor weight (est.), dose: 64.0 mg/kg/injection, schedule: Q01DX005 (ip), vehicle: saline
  T/C: 85 % of control
endpoint: median tumor weight (est.), dose: 100.0 mg/kg/injection, schedule: Q07DX005 (ip), vehicle: saline
  T/C: 57 % of control
endpoint: median tumor weight (est.), dose: 128.0 mg/kg/injection, schedule: Q01DX005 (ip), vehicle: saline
  T/C: 92 % of control
endpoint: median tumor weight (est.), dose: 200.0 mg/kg/injection, schedule: Q07DX005 (ip), vehicle: saline
  T/C: 56 % of control
endpoint: median tumor weight (est.), dose: 256.0 mg/kg/injection, schedule: Q01DX005 (ip), vehicle: saline
  T/C: 51 % of control
endpoint: median tumor weight (est.), dose: 400.0 mg/kg/injection, schedule: Q07DX005 (ip), vehicle: saline
  T/C: 49 % of control
endpoint: median tumor weight (est.), dose: 512.0 mg/kg/injection, schedule: Q01DX005 (ip), vehicle: saline
  T/C: 31 % of control
endpoint: median tumor weight (est.), dose: 1024.0 mg/kg/injection, schedule: Q01DX005 (ip), vehicle: saline
  T/C: 63 % of control
